Laboratory results published in US10730850B2, “Pyridinylmethyl carbamimidoylcarbamate derivatives and their use as AOC3 inhibitors” (Boehringer Ingelheim International GmbH, priority 2016, dated 2020).
Like-named read-outs stand apart in the source and are kept apart here.

How the values were obtained:
AOC3 = AOC3 (Homo sapiens (Human), UniProt Q16853); experiment: MAO-Glo AOC3 assay (recombinant CHO cells overexpressing AOC3); assay type: biochemical
Text: The MAO-Glo™ Assay (commercial available from PROMEGA, # V1402) provides a sensitive method for the measurement of monoamine oxidase (MAO) activity (Valley, M. P. et al., 2006, Anal. Biochem. 359: 238-246) from a variety of tissues, biofluids or recombinant expressed or purified enzymes. As substrate a derivate of the beetle luciferin ((4S)-4,5-dihydro-2-(6-hydroxybenzothiazolyl)-4-thiazole-carboxylic acid) is used, which is oxidized at a primary amine moiety. After a spontaneous elimination and a catalyzed esterase reaction, the turnover of the luciferine by the luciferase is recorded as a signal of AOC3 activity.
An aliquot of 3 μL of the compound dilution is added to a 384 well plate (Optiplate, PS, flat bottom, white, PERKIN ELMER, #6007290) with a final DMSO concentration of 6.6%. Recombinant CHO cells, overexpressing the human (1500 cells/well), mouse (1000 cells/well) or rat (500 cells/well) AOC3 enzyme are diluted in reaction buffer and added in a volume of 15 μL to the wells. After incubation for 20 minutes at 37° C., 2 μL of MAO substrate (dissolved in DMSO at 16 mM, adjusted to assay concentration in reaction buffer to a final assay concentration of 20 μM) is added and further incubated for 60 minutes at 37° C. The turnover of the substrate is determined by the addition of 20 μL of the detection-mix which was generated by the addition of reconstitution buffer with esterase (PROMEGA, # V1402) to the luciferine detection reagent (PROMEGA, # V1402). After an incubation period of 20 minutes, the luminescent signal is measured with Envision 2104 Multilabel Reader (PERKIN ELMER).
In the following table the activity expressed as IC50 (nM) of compounds according to the invention is presented wherein the IC50 values are determined in the MAO-Glo™ AOC3 assay as described hereinbefore. The term “Example” refers to the example numbers according to the following experimental section.

hepatocytes = experiment: Metabolic stability assay in hepatocyte suspension; assay type: in vitro ADME; settings: 1 μM test compound
Procedure: The metabolic degradation of the test compound is assayed in a hepatocyte suspension. Hepatocytes (typically cryopreserved) are incubated in an appropriate buffer system (e.g. Dulbecco's modified eagle medium plus 3.5 μg glucagon/500 mL, 2.5 mg insulin/500 mL and 3.75 mg/500 mL hydrocortison) containing 5% species serum. Following a (typically) 30 min preincubation in an incubator (37° C., 10% CO2) 5 μl of test compound solution (80 μM; from 2 mM in DMSO stock solution diluted 1:25 with medium) are added into 395 μl hepatocyte suspension (cell density in the range 0.25-5 Mio cells/mL, typically 1 Mio cells/mL; final concentration of test compound 1 μM, final DMSO concentration 0.05%). The cells are incubated for six hours (incubator, orbital shaker) and samples (25 μl) are taken at 0, 0.5, 1, 2, 4 and 6 hours. Samples are transferred into acetonitrile and pelleted by centrifugation (5 min). The supernatant is transferred to a new 96-deepwell plate, evaporated under nitrogen and resuspended. Decline of parent compound is analyzed by HPLC-MS/MS
CLint is calculated as follows CL_INTRINSIC=Dose/AUC=(C0/CD)/(AUD+clast/k)×1000/60. C0: initial concentration in the incubation [μM], CD: cell density of vital cells [10e6 cells/mL], AUD: area under the data [μM×h], clast: concentration of last data point [μM], k: slope of the regression line for parent decline [h-1].
The calculated in vitro hepatic intrinsic clearance can be scaled up to the intrinsic in vivo hepatic Clearance and used to predict hepatic in vivo blood clearance (CL) by the use of a liver model (well stirred model). CL_INTRINSIC_INVIVO [ml/min/kg]=(CL_INTRINSIC [μL/min/10e6 cells]×hepatocellularity [10e6 cells/g liver]×liver factor [g/kg bodyweight])/1000 CL [ml/min/kg]=CL_INTRINSIC_INVIVO [ml/min/kg]×hepatic blood flow [ml/min/kg]/(CL_INTRINSIC_INVIVO [ml/min/kg]+hepatic blood flow [ml/min/kg])

[1] = Table 2, comparative compounds of EP 2 695 881, read-out: IC50
[2] = Table 3, comparative compounds of EP 2 695 881

Sequence of AOC3 (Q16853 whole entry): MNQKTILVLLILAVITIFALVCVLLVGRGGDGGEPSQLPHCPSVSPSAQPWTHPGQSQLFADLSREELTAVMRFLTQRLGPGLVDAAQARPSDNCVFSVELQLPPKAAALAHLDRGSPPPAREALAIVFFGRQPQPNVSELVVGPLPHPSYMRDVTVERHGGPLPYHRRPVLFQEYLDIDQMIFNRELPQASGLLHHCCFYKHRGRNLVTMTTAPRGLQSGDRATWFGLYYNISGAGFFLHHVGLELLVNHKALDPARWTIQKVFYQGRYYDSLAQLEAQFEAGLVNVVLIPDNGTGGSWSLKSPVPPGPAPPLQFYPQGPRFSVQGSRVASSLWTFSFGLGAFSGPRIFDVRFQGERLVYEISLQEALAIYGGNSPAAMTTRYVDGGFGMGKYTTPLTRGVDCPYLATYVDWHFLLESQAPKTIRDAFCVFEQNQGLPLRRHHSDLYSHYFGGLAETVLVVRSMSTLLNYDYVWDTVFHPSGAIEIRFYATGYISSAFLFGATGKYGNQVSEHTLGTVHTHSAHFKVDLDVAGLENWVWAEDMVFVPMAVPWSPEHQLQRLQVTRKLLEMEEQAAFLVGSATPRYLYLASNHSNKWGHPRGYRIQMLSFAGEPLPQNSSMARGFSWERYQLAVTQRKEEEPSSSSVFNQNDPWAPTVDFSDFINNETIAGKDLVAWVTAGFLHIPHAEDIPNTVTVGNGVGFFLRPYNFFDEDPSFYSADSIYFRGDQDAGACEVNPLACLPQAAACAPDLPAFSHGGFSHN

Row | SMILES | IC50 (AOC3; Table 1, read-out: AOC3 IC50) | QH (hepatocytes; Table 4) | also measured
1 | CS(=O)(=O)c1ccc(N2CCN(c3nccc(COC(=O)NC(=N)N)c3F)CC2)c(F)c1 [Example 1.106] | 6 nM | 8% | –
2 | N=C(N)NC(=O)OCc1ccnc(N2CCC(c3ccc(Cl)cc3)CC2)c1F [Example 1.074] | 7 nM | 24% | –
3 | CN(C)C(=O)c1ccc(N2CCN(c3nccc(COC(=O)NC(=N)N)c3F)CC2)cc1 [Example 1.100] | 5 nM | 9% | –
4 | N=C(N)NC(=O)OCc1ccnc(N2CCC(N3Cc4ccccc4C3=O)CC2)c1F [Example 1.089] | 4 nM | 8% | –
5 | COc1ncc(N2CCN(c3cccc(COC(=O)NC(=N)N)n3)CC2)cn1 [Example 1.036] | 7 nM | 16% | –
6 | N=C(N)NC(=O)OCc1ccnc(N2CC=C(c3ccc(F)cc3)CC2)c1F [Example 1.037] | 9 nM | 20% | –
7 | CC(=O)c1ccc(N2CCN(c3nccc(COC(=O)NC(=N)N)c3F)CC2)nc1 [Example 1.085] | 4 nM | 85% | –
8 | N#Cc1ccc(N2CCN(c3nccc(COC(=O)NC(=N)N)c3F)CC2)cc1 [Example 1.055] | 2 nM | 16% | –
9 | Cc1cc(C)cc(N2CCN(c3nccc(COC(=O)NC(=N)N)c3F)CC2)c1 [Example 1.061] | 8 nM | 13% | –
10 | CC(=O)N1CCC(C2CN(c3cccc(COC(=O)NC(=N)N)n3)C2)CC1 [Example 1.016] | 10 nM | 6% | –
11 | COC(=O)c1ccc(N2CCN(c3nccc(COC(=O)NC(=N)N)c3F)CC2)nc1 [Example 1.092] | 9 nM | 92% | –
12 | COc1ccc(N2CCN(c3cccc(COC(=O)NC(=N)N)c3F)CC2)cc1 [57 (227), reference compound] | – | – | IC50 (AOC3; [1]): 3.9 nM; QH (hepatocytes; [2]): 20%
13 | COc1ccc(C2CCN(c3nccc(COC(=O)NC(=N)N)c3F)CC2)cc1 [Example 1.065] | 5 nM | 40% | –
14 | N#CC1(c2ccccc2)CCN(c2nccc(COC(=O)NC(=N)N)c2F)CC1 [Example 1.050] | 2 nM | 10% | –
15 | CNC(=O)c1ccc(N2CCN(c3nccc(COC(=O)NC(=N)N)c3F)CC2)nc1 [Example 1.091] | 7 nM | 7% | –
16 | N=C(N)NC(=O)OCc1ccnc(N2CCN(c3ccc(Cl)cc3)CC2)c1F [Example 1.077] | 7 nM | 30% | –
17 | N#Cc1cccc(C2CCN(c3nccc(COC(=O)NC(=N)N)c3F)CC2)c1 [Example 1.051] | 2 nM | 20% | –
18 | N=C(N)NC(=O)OCc1cccc(N2CCN(c3ccc(C(N)=O)cc3)CC2)c1F [reference compound] | – | – | IC50 (AOC3; [1]): 2.5 nM; QH (hepatocytes; [2]): 47%
19 | COc1ccc(N2CCN(c3nccc(COC(=O)NC(=N)N)c3F)CC2)cc1 [Example 1.067] | 5 nM | 23% | IC50 (AOC3; Table 2, compounds of the present invention, read-out: IC50): 4.6 nM; QH (hepatocytes; Table 3, compounds of the present invention): 10%
20 | N=C(N)NC(=O)OCc1ccnc(N2CCC(c3ccncc3)CC2)c1F [Example 1.010] | 3 nM | 16% | –
21 | N#Cc1ccc(N2CCN(c3nccc(COC(=O)NC(=N)N)n3)CC2)cc1 [Example 1.027] | 2 nM | 9% | –
22 | N=C(N)NC(=O)OCc1ccnc(N2CCC(c3ccc(F)cc3)CC2)c1F [Example 1.041] | 9 nM | 12% | –

Row | SMILES | IC50 (AOC3; Table 1, read-out: AOC3 IC50) | QH (hepatocytes; Table 4) | also measured
23 | N=C(N)NC(=O)OCc1ccnc(N2CCN(c3ccc(Cl)cn3)CC2)c1F [Example 1.078] | 9 nM | 14% | –
24 | N#Cc1ccc(N2CCN(c3nccc(COC(=O)NC(=N)N)c3F)CC2)nc1 [Example 1.056] | 4 nM | 12% | –
25 | N=C(N)NC(=O)OCc1ccnc(N2CCN(c3ccc(C(F)(F)F)nn3)CC2)c1F [Example 1.099] | 5 nM | 9% | –
26 | N=C(N)NC(=O)OCc1ccnc(N2CCN(c3ccccc3)C(=O)C2)c1F [Example 1.033] | 6 nM | 4% | –
27 | N=C(N)NC(=O)OCc1ccnc(N2CCN(c3ccc(C(N)=O)cn3)CC2)c1F [Example 1.086] | 7 nM | 11% | –
28 | CS(=O)(=O)c1ccc(N2CCN(c3nccc(COC(=O)NC(=N)N)c3F)CC2)nc1 [Example 1.103] | 8 nM | <4% | –
29 | Cc1cc(N2CCN(c3nccc(COC(=O)NC(=N)N)c3F)CC2)ccn1 [Example 1.039] | 2 nM | <4% | –
30 | N=C(N)NC(=O)OCc1ccnc(N2CCC(C3CCN(S(N)(=O)=O)CC3)CC2)c1F [Example 1.104] | 9 nM | 5% | –
31 | N=C(N)NC(=O)OCc1ccnc(N2CCN(c3cccc(F)c3)CC2)c1F [Example 1.044] | 9 nM | 56% | –
32 | N=C(N)NC(=O)OCc1ccnc(N2CCN(c3ccncc3)CC2)c1F [Example 1.011] | 3 nM | <4% | –
33 | COc1cnc(C2=CCN(c3nccc(COC(=O)NC(=N)N)c3F)CC2)nc1 [Example 1.064] | 6 nM | 14% | –
34 | Cc1cccc(N2CCN(c3nccc(COC(=O)NC(=N)N)c3F)CC2)c1 [Example 1.031] | 9 nM | 23% | –
35 | N=C(N)NC(=O)OCc1ccnc(N2CCC(C3CCOCC3)CC2)c1F [Example 1.023] | 8 nM | 14% | –
36 | COc1cccc(C2=CCN(c3nccc(COC(=O)NC(=N)N)c3F)CC2)c1 [Example 1.058] | 4 nM | 18% | –
37 | N#Cc1ccc(N2CCN(c3nccc(COC(=O)NC(=N)N)c3F)CC2)c(F)c1 [Example 1.083] | 4 nM | 11% | –
38 | N#Cc1cccc(N2CCN(c3nccc(COC(=O)NC(=N)N)c3F)CC2)c1 [Example 1.054] | 1 nM | 14% | –
39 | N=C(N)NC(=O)OCc1ccnc(N2CCN(c3cncnc3)CC2)c1F [Example 1.017] | 3 nM | 6% | –
40 | COC(=O)N1CCC(C2CCN(c3nccc(COC(=O)NC(=N)N)c3F)CC2)CC1 [Example 1.095] | 3 nM | 15% | –
41 | COc1cccc(N2CCN(c3nccc(COC(=O)NC(=N)N)c3F)CC2)c1 [Example 1.068] | 7 nM | 23% | –
42 | CC(=O)N1CCC(C2CN(c3nccc(COC(=O)NC(=N)N)c3F)C2)CC1 [Example 1.047] | 8 nM | <4% | –
43 | CN(C)C(=O)c1ccc(N2CCN(c3nccc(COC(=O)NC(=N)N)c3F)CC2)nc1 [Example 1.101] | 7 nM | <4% | –
44 | COc1ncc(N2CCN(c3cccc(COC(=O)NC(=N)N)c3F)CC2)cn1 [126 (235), reference compound] | – | – | IC50 (AOC3; [1]): 3.9 nM; QH (hepatocytes; [2]): 11%
